# Assay results as given in patent US10717716B2, “1,3,4-oxadiazole derivative compounds as histone deacetylase 6 inhibitor, and the pharmaceutical composition comprising the same” (Chong Kun Dang Pharmaceutical Corp., priority 2015, dated 2020).
# Assays:
# human recombinant HDAC1 = molecular target: T1, human recombinant HDAC1 (Homo sapiens, UniProt Q13547); test: HDAC1 enzyme activity inhibition assay (HDAC Fluorimetric Drug Discovery Kit); type: biochemical; conditions: human recombinant HDAC1, Fluor de Lys substrate 10 μM, 30° C. 60 minutes
# T1 construct: purchased Enzo Life Science BML-SE456
# T1 sequence (Q13547 whole entry): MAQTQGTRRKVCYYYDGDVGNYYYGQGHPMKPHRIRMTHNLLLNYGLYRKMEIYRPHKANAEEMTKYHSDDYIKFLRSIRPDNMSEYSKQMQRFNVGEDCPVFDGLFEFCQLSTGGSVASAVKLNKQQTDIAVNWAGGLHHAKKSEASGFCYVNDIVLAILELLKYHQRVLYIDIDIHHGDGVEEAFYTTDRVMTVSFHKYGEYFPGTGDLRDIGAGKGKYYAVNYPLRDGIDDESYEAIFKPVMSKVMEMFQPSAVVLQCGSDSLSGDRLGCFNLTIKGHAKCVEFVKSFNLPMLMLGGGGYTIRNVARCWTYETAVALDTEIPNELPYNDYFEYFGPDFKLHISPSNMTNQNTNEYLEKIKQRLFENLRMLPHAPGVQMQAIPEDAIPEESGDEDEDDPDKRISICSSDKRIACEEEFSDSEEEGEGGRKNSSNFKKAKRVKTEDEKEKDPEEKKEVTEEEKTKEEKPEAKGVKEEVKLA
# Experimental: In order to examine the HDAC6 selectivity of the compounds of formula I of the present invention by HDAC1 and HDAC6 enzymatic activity inhibition assays, an experiment was performed using a conventional substance as a control.
# HDAC enzyme activity was measured using a HDAC Fluorimetric Drug Discovery Kit (BML-AK511, 516, Enzo Life Science). For the HDAC1 enzyme activity test, human recombinant HDAC1 (BML-SE456) was used as an enzyme source, and Fluor de Lys®-“SIRT1 (BNL-KI177) was used as a substrate. A 5-fold dilution of the compound was seeded into a 96-well plate, and then 0.3 μg of the enzyme and 10 μM of the substrate were added to each well of the plate and allowed to react at 30° C. for 60 minutes. Then, Fluor de Lys®-Developer II (BML-KI176) was added thereto and allowed to react for 30 minutes, after which the fluorescence value (Ex 360, Em 460) was measured using a multi-plate reader (Flexstation 3, Molecular Device). The HDAC6 enzyme was tested using human recombinant HDAC6 (382180) (Calbiochem) according to the same protocol as the HDAC1 enzyme activity test method. Based on the resulting values, each IC5, value was calculated using GraphPad Prism4.0 program.
# human recombinant HDAC6 = molecular target: T2, human recombinant HDAC6 (Homo sapiens, UniProt Q9UBN7); test: HDAC6 enzyme activity inhibition assay (HDAC Fluorimetric Drug Discovery Kit); type: biochemical; conditions: for HDAC6 selectivity (fold): HDAC6 over HDAC1; for IC50: human recombinant HDAC6, same protocol as HDAC1, read-out: HDAC6
# T2 construct: purchased Calbiochem 382180
# T2 sequence (Q9UBN7 1-1215): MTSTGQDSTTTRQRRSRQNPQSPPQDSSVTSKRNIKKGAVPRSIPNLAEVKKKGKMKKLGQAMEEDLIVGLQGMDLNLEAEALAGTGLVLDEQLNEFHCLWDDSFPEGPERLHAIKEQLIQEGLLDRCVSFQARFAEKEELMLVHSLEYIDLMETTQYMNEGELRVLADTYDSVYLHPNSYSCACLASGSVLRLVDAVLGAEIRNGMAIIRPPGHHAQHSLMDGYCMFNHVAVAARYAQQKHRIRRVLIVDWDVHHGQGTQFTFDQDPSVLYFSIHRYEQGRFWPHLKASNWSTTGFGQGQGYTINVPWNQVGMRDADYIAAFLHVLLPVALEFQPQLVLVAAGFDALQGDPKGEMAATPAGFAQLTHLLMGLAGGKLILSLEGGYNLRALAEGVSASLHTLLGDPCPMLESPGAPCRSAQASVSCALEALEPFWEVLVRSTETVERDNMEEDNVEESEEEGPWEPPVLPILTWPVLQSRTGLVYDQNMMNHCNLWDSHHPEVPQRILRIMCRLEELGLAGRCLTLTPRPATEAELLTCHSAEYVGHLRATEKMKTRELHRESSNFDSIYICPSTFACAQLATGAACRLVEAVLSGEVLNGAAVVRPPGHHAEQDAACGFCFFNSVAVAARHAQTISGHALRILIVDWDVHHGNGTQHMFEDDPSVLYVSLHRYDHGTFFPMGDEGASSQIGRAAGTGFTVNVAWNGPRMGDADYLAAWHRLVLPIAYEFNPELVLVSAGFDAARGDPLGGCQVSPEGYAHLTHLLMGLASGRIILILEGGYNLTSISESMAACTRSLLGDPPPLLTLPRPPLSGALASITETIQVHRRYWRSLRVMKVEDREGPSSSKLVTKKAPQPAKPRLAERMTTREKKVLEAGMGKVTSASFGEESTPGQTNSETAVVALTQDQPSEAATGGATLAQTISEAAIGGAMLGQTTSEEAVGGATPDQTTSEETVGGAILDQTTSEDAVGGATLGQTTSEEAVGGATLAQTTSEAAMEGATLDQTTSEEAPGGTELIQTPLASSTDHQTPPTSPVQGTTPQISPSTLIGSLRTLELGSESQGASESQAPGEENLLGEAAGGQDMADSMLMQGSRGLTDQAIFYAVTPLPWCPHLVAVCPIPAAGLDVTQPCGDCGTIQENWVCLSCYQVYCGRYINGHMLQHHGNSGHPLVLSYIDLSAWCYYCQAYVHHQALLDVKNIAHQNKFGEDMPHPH
# Method in brief: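 Fluorimetric deacetylase assay: 5-fold serial compound dilutions, 0.3 μg recombinant human enzyme (HDAC1 or HDAC6, same protocol), 10 μM Fluor de Lys-SIRT1 substrate, 60 min at 30 °C. Signal developed 30 min, measured at 360/460 nm; IC50 values derived.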
smiles,measurement,setting,value
"CCN1CCN(C(=O)N(Cc2ccc(-c3nnc(C(F)F)o3)cc2F)c2ccc(F)cc2Cl)CC1 [Compound 21650, N-(2-chloro-4-fluorophenyl)-N-(4-(5-(difluoromethyl)-1,3,4-oxadiazol-2-yl)-2-fluorobenzyl)-4-ethylpiperazine-1-carboxamide]",IC50,human recombinant HDAC1,36.1 µM
same,HDAC6 selectivity (fold),human recombinant HDAC6,468 fold
same,IC50,human recombinant HDAC6,77 nM
"CN(C)[C@H]1CCN(C(=O)N(Cc2ccc(-c3nnc(C(F)F)o3)cc2F)c2ccc(F)cc2Cl)C1 [Compound 21651, (S)—N-(2-chloro-4-fluorophenyl)-N-(4-(5-(difluoromethyl)-1,3,4-oxadiazol-2-yl)-2-fluorobenzyl)-3-(dimethylamino)pyrrolidine-1-carboxamide]",IC50,human recombinant HDAC1,49.2 µM
same,HDAC6 selectivity (fold),human recombinant HDAC6,806 fold
same,IC50,human recombinant HDAC6,61 nM
"CN(C)[C@@H]1CCN(C(=O)N(Cc2ccc(-c3nnc(C(F)F)o3)cc2F)c2ccc(F)cc2Cl)C1 [Compound 21652, (R)—N-(2-chloro-4-fluorophenyl)-N-(4-(5-(difluoromethyl)-1,3,4-oxadiazol-2-yl)-2-fluorobenzyl)-3-(dimethylamino)pyrrolidine-1-carboxamide]",IC50,human recombinant HDAC1,36.5 µM
same,HDAC6 selectivity (fold),human recombinant HDAC6,787 fold
same,IC50,human recombinant HDAC6,46 nM
"CN1CCN(C(=O)N(Cc2ccc(-c3nnc(C(F)F)o3)cc2F)c2ccc3cnn(C)c3c2)CC1 [Compound 21654, N-(4-(5-(difluoromethyl)-1,3,4-oxadiazol-2-yl)-2-fluorobenzyl)-4-methyl-N-(1-methyl-1H-indazol-6-yl)piperazine-1-carboxamide]",IC50,human recombinant HDAC1,18.8 µM
same,HDAC6 selectivity (fold),human recombinant HDAC6,1518 fold
same,IC50,human recombinant HDAC6,12 nM
"CCN1CCN(C(=O)N(Cc2ccc(-c3nnc(C(F)F)o3)cc2F)c2ccc(F)c(Br)c2)CC1 [Compound 21656, N-(3-bromo-4-fluorophenyl)-N-(4-(5-(difluoromethyl)-1,3,4-oxadiazol-2-yl)-2-fluorobenzyl)-4-ethylpiperazine-1-carboxamide]",IC50,human recombinant HDAC1,36.5 µM
same,HDAC6 selectivity (fold),human recombinant HDAC6,1122 fold
same,IC50,human recombinant HDAC6,33 nM
"CCN1CCN(C(=O)N(Cc2ccc(-c3nnc(C(F)(F)F)o3)cc2F)c2ccc(F)c(Br)c2)CC1 [Compound 21658, N-(3-bromo-4-fluorophenyl)-4-ethyl-N-(2-fluoro-4-(5-(trifluoromethyl)-1,3,4-oxadiazol-2-yl)benzyl)piperazine-1-carboxamide]",IC50,human recombinant HDAC1,8.44 µM
same,HDAC6 selectivity (fold),human recombinant HDAC6,59 fold
same,IC50,human recombinant HDAC6,144 nM
"CCN1CCN(C(=O)N(Cc2ccc(-c3nnc(C(F)(F)F)o3)cc2F)c2cccc(F)c2F)CC1 [Compound 21659, N-(2,3-difluorophenyl)-4-ethyl-N-(2-fluoro-4-(5-(trifluoromethyl)-1,3,4-oxadiazol-2-yl)benzyl)piperazine-1-carboxamide]",IC50,human recombinant HDAC1,15.7 µM
same,HDAC6 selectivity (fold),human recombinant HDAC6,153 fold
same,IC50,human recombinant HDAC6,102 nM
"CCN1CCN(C(=O)N(Cc2ccc(-c3nnc(C(F)(F)F)o3)cc2F)c2ccc(C)c(Cl)c2)CC1 [Compound 21660, N-(3-chloro-4-methylphenyl)-4-ethyl-N-(2-fluoro-4-(5-(trifluoromethyl)-1,3,4-oxadiazol-2-yl)benzyl)piperazine-1-carboxamide]",IC50,human recombinant HDAC1,24.8 µM
same,HDAC6 selectivity (fold),human recombinant HDAC6,80 fold
same,IC50,human recombinant HDAC6,309 nM
"O=C(N1CC[C@@H](O)C1)N(Cc1ccc(-c2nnc(C(F)(F)F)o2)cc1F)c1ccc(F)c(Cl)c1 [Compound 21664, (R)—N-(3-chloro-4-fluorophenyl)-N-(2-fluoro-4-(5-(trifluoromethyl)-1,3,4-oxadiazol-2-yl)benzyl)-3-hydroxypyrrolidine-1-carboxamide]",IC50,human recombinant HDAC1,17.1 µM
same,HDAC6 selectivity (fold),human recombinant HDAC6,114 fold
same,IC50,human recombinant HDAC6,151 nM
"O=C(N1CC[C@H](F)C1)N(Cc1ccc(-c2nnc(C(F)F)o2)cc1F)c1ccc(F)c(Cl)c1 [Compound 21665, (S)—N-(3-chloro-4-fluorophenyl)-N-(4-(5-(difluoromethyl)-1,3,4-oxadiazol-2-yl)-2-fluorobenzyl)-3-fluoropyrrolidine-1-carboxamide]",IC50,human recombinant HDAC1,19.1 µM
same,HDAC6 selectivity (fold),human recombinant HDAC6,917 fold
same,IC50,human recombinant HDAC6,21 nM
"O=C(N1CC[C@H](F)C1)N(Cc1ccc(-c2nnc(C(F)(F)F)o2)cc1F)c1ccc(F)c(Cl)c1 [Compound 21666, (S)—N-(3-chloro-4-fluorophenyl)-3-fluoro-N-(2-fluoro-4-(5-(trifluoromethyl)-1,3,4-oxadiazol-2-yl)benzyl)pyrrolidine-1-carboxamide]",IC50,human recombinant HDAC1,20.5 µM
same,HDAC6 selectivity (fold),human recombinant HDAC6,55 fold
same,IC50,human recombinant HDAC6,374 nM
"O=C(N1CCC(F)(F)C1)N(Cc1ccc(-c2nnc(C(F)F)o2)cc1F)c1ccc(F)c(Cl)c1 [Compound 21667, N-(3-chloro-4-fluorophenyl)-N-(4-(5-(difluoromethyl)-1,3,4-oxadiazol-2-yl)-2-fluorobenzyl)-3,3-difluoropyrrolidine-1-carboxamide]",IC50,human recombinant HDAC1,20.1 µM
same,HDAC6 selectivity (fold),human recombinant HDAC6,485 fold
same,IC50,human recombinant HDAC6,41 nM
"O=C(N1CCC(F)(F)C1)N(Cc1ccc(-c2nnc(C(F)(F)F)o2)cc1F)c1ccc(F)c(Cl)c1 [Compound 21668, N-(3-chloro-4-fluorophenyl)-3,3-difluoro-N-(2-fluoro-4-(5-(trifluoromethyl)-1,3,4-oxadiazol-2-yl)benzyl)pyrrolidine-1-carboxamide]",IC50,human recombinant HDAC1,10.4 µM
same,HDAC6 selectivity (fold),human recombinant HDAC6,41 fold
same,IC50,human recombinant HDAC6,253 nM
"O=C(N1CCN(CCO)CC1)N(Cc1ccc(-c2nnc(C(F)(F)F)o2)cc1F)c1ccc(F)c(Cl)c1 [Compound 21669, N-(3-chloro-4-fluorophenyl)-N-(2-fluoro-4-(5-(trifluoromethyl)-1,3,4-oxadiazol-2-yl)benzyl)-4-(2-hydroxyethyl)piperazine-1-carboxamide]",IC50,human recombinant HDAC1,7.47 µM
same,HDAC6 selectivity (fold),human recombinant HDAC6,46 fold
same,IC50,human recombinant HDAC6,164 nM
"O=C(N1CCN(CCO)CC1)N(Cc1ccc(-c2nnc(C(F)F)o2)cc1F)c1ccc(F)c(Cl)c1 [Compound 21679, N-(3-chloro-4-fluorophenyl)-N-(4-(5-(difluoromethyl)-1,3,4-oxadiazol-2-yl)-2-fluorobenzyl)-4-(2-hydroxyethyl)piperazine-1-carboxamide]",IC50,human recombinant HDAC1,23.2 µM
same,HDAC6 selectivity (fold),human recombinant HDAC6,675 fold
same,IC50,human recombinant HDAC6,34 nM
"CN1CCN(C(=O)N(Cc2ccc(-c3nnc(C(F)F)o3)cc2F)c2cccc3c2cnn3C)CC1 [Compound 21709, N-(4-(5-(difluoromethyl)-1,3,4-oxadiazol-2-yl)-2-fluorobenzyl)-4-methyl-N-(1-methyl-1H-indazol-4-yl)piperazine-1-carboxamide]",IC50,human recombinant HDAC1,58.5 µM
same,HDAC6 selectivity (fold),human recombinant HDAC6,2255 fold
same,IC50,human recombinant HDAC6,26 nM
"Cn1ncc2c(N(Cc3ccc(-c4nnc(C(F)F)o4)cc3F)C(=O)N3CCS(=O)(=O)CC3)cccc21 [Compound 21710, N-(4-(5-(difluoromethyl)-1,3,4-oxadiazol-2-yl)-2-fluorobenzyl)-N-(1-methyl-1H-indazol-4-yl)thiomorpholine-4-carboxamide 1,1-dioxide]",IC50,human recombinant HDAC1,67.7 µM
same,HDAC6 selectivity (fold),human recombinant HDAC6,2651 fold
same,IC50,human recombinant HDAC6,26 nM
